Patent US20260182575A1, “MOLECULES HAVING PESTICIDAL UTILITY AND INTERMEDIATES AND PROCESSES RELATED THERETO” (CORTEVA AGRISCIENCE LLC, priority 2022, published 2026)

What was measured:
[1] = test system: Brown Planthopper (Nilaparvata lugens, NILALU, BPH); experiment: Bioassay 6: brown planthopper, sprayed rice seedlings; format: in vivo; conditions: AI alone, AI Rate 0.049 g/ha, 6 days
Description: At these rates, F1 and the individual active ingredients were tested at a ratio of 1:1. […] F1 and triflumezopyrim were tested at a ratio of 16:1. Test solutions were prepared containing F1, the individual active ingredients, and mixtures of F1 with each of the active ingredients. Test solutions were prepared by weighing 5 mg of each test chemistry (either alone or in combination depending on the treatment) into a 25 mL glass vial. Next, 1 mL of acetone was added to each vial to dissolve the test chemistries, followed by 19 mL of water with 0.125% Tween 20 adjuvant. This test solution represented the 50 g/ha treatment, which was then serially diluted four-fold to create the three lower rates of 12.5, 3.125, and 0.78 g/ha. Triflumezopyrim was prepared in a similar manner, but two additional serial dilutions were conducted to create solutions representing 6 rates of 12.5, 3.125, 0.78, 0.19, 0.049, and 0.012 g/ha. The higher two doses were discarded, and the four lower doses were used for testing. Each rate was replicated four times, and solvent blanks were used as control treatments.
Five (5) rice seedlings (10-12 days old) planted in 3-inch pots were used as test plants. Rice seedlings were grown in soil and the soil was covered with a 2% agar solution. The test solutions were applied to test plants using a Devries laboratory research sprayer, set to spray at 200 liters per hectare (L/ha) using a TeeJet hollow cone nozzle. Following application, the rice seedlings were dried for 1 hour, after which a single clear plastic tube (2 inches in diameter×12 inches in height) was placed over the seedlings in each pot. The tube was pushed down into the agar to create a sealed test chamber. The agar prevented insects from hiding in the soil and made adult collection and grading easier. Ten to fifteen (10-15) 5th instar BPH nymphs were transferred to each test chamber using a vacuum aspirator. Immediately following BPH infestation, the test chamber was covered with a piece of grade 90 cheesecloth and secured with a rubber band, sealing the test chamber. The test chambers were held at 25° C. for 6 days, after which the total number of live insects was counted in each test chamber. Percent control was measured using Abbott's correction formula (W. S. Abbott, J. Econ. Entomol. 18 (1925), pp. 265-267) as follows:
where X=No. of live insects on solvent check and Y=No. of live insects in treated chambers. In Table B6 the “Expected % Control” was calculated using the method described in Colby S. R., Weeds, 1967, 15, 20-22. Bioassay 7: Corn Earworm (Helicoverpa zea, HELIZE, “CEW”), Fall Armyworm (Spodoptera frugiperda, LAPHFR, “FAW”), Beet Armyworm (Spodoptera exigua, LAPHEG, “BAW”),and Soybean Looper (Chrysodeixis includens, PSEPIN, “SBL”).

[2] = test system: Sweet Potato Whitefly (Bemisia tabaci, BEMITA, SPW); experiment: Bioassay 2: sweet potato whitefly, cotton seedling foliar spray; format: in vivo; conditions: AI alone

SMILES	Average % Control AI [1]	Average % Control AI ([2]; Wt % AI 0.000001, 7-9 days)	Average % Control AI ([2]; Wt % AI 0.00001, 7-9 days)
COC(=O)N(C(=O)N1CO[C@@]2(C(=O)OC)Cc3cc(Cl)ccc3C2=N1)c1ccc(OC(F)(F)F)cc1 [Indoxacarb]	1.2%	–	–
CON=CNC(=O)c1ccc(C2=NOC(c3cc(Cl)cc(Cl)c3)(C(F)(F)F)C2)cc1C (stereo not drawn) [Fluxametamide]	42.3%	–	–
CN1COCN(Cc2cnc(Cl)s2)/C1=N\[N+](=O)[O-] [Thiamethoxam]	–	5.8%	35.9%
C[C@]1(COC(=O)C2CC2)[C@@H]2C[C@H](O)[C@@]3(C)Oc4cc(-c5cccnc5)oc(=O)c4[C@H](O)[C@@H]3[C@@]2(C)CC[C@@H]1OC(=O)C1CC1 [Afidopyropen]	11.4%	–	0.0%
